Measured values reported in PubChem BioAssay (NCI).
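Results reflect a 48-hour exposure of cells in 96-well plates to compound at five concentrations. GI50 is the concentration that inhibits growth by half. TGI denotes the concentration required for complete inhibition of growth.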

Tests used:
Test in all cases: growth of human tumour cells (NCI), 48 h
OVCAR-3 ovarian = system: OVCAR-3 ovarian
A549 NSCLC = system: A549 NSCLC
CCRF-CEM leukemia = system: CCRF-CEM leukemia
UO-31 renal = system: UO-31 renal
MOLT-4 leukemia = system: MOLT-4 leukemia
SNB-19 CNS = system: SNB-19 CNS
SF-268 CNS = system: SF-268 CNS
HCT-15 colon = system: HCT-15 colon
SF-539 CNS = system: SF-539 CNS
SK-MEL-28 melanoma = system: SK-MEL-28 melanoma
MDA-MB-231 breast = system: MDA-MB-231 breast
HCC-2998 colon = system: HCC-2998 colon
MCF7 breast = system: MCF7 breast
TK-10 renal = system: TK-10 renal
DU-145 prostate = system: DU-145 prostate
ACHN renal = system: ACHN renal
UACC-62 melanoma = system: UACC-62 melanoma
OVCAR-5 ovarian = system: OVCAR-5 ovarian
T-47D breast = system: T-47D breast
SK-MEL-5 melanoma = system: SK-MEL-5 melanoma
KM12 colon = system: KM12 colon
IGROV1 ovarian = system: IGROV1 ovarian
HCT-116 colon = system: HCT-116 colon
SK-OV-3 ovarian = system: SK-OV-3 ovarian
SW-620 colon = system: SW-620 colon
OVCAR-8 ovarian = system: OVCAR-8 ovarian
CAKI-1 renal = system: CAKI-1 renal
HL-60(TB) leukemia = system: HL-60(TB) leukemia
786-0 renal = system: 786-0 renal
BT-549 breast = system: BT-549 breast
PC-3 prostate = system: PC-3 prostate
SNB-75 CNS = system: SNB-75 CNS
SF-295 CNS = system: SF-295 CNS
UACC-257 melanoma = system: UACC-257 melanoma
COLO 205 colon = system: COLO 205 colon
NCI-H23 lung = system: NCI-H23 lung
NCI-H460 lung = system: NCI-H460 lung
NCI/ADR-RES ovarian = system: NCI/ADR-RES ovarian
SR leukemia = system: SR leukemia
NCI-H522 lung = system: NCI-H522 lung
MALME-3M melanoma = system: MALME-3M melanoma
SN12C renal = system: SN12C renal
K-562 leukemia = system: K-562 leukemia
RXF 393 renal = system: RXF 393 renal
RPMI-8226 leukemia = system: RPMI-8226 leukemia
NCI-H226 lung = system: NCI-H226 lung
HT29 colon = system: HT29 colon
M14 melanoma = system: M14 melanoma
HOP-62 NSCLC = system: HOP-62 NSCLC
HS 578T breast = system: HS 578T breast
OVCAR-4 ovarian = system: OVCAR-4 ovarian
A498 renal = system: A498 renal
MDA-MB-435 = system: MDA-MB-435

Work on `O=C(Cc1ccc(OCc2ccccc2)cc1)NCc1ccc2c(c1)OCO2` yielded a GI50 (OVCAR-3 ovarian) greater than 100 µM, a TGI (OVCAR-3 ovarian) greater than 100 µM and a GI50 (A549 NSCLC) greater than 100 µM. For the same compound, the TGI (A549 NSCLC) was greater than 100 µM, the GI50 (CCRF-CEM leukemia) was greater than 100 µM and the TGI (CCRF-CEM leukemia) was greater than 100 µM. For the same compound, the GI50 (UO-31 renal) was greater than 100 µM, the TGI (UO-31 renal) was greater than 100 µM and the GI50 (MOLT-4 leukemia) was greater than 100 µM. It also gave a TGI (MOLT-4 leukemia) greater than 100 µM, a GI50 (SNB-19 CNS) of 41.9 µM and a TGI (SNB-19 CNS) greater than 100 µM. The GI50 (SF-268 CNS) was 6.72 µM, the TGI (SF-268 CNS) was greater than 100 µM and the GI50 (HCT-15 colon) was 5.31 µM. It also gave a TGI (HCT-15 colon) greater than 100 µM, a GI50 (SF-539 CNS) of 9.11 µM and a TGI (SF-539 CNS) greater than 100 µM. The GI50 (SK-MEL-28 melanoma) was greater than 100 µM, the TGI (SK-MEL-28 melanoma) was greater than 100 µM and the GI50 (MDA-MB-231 breast) was 59 µM. For the same compound, the TGI (MDA-MB-231 breast) was greater than 100 µM, the GI50 (HCC-2998 colon) was greater than 100 µM and the TGI (HCC-2998 colon) was greater than 100 µM. The GI50 (MCF7 breast) was 5.43 µM, the TGI (MCF7 breast) was greater than 100 µM and the GI50 (TK-10 renal) was greater than 100 µM. It also gave a TGI (TK-10 renal) greater than 100 µM, a GI50 (DU-145 prostate) greater than 100 µM and a TGI (DU-145 prostate) greater than 100 µM. It also gave a GI50 (ACHN renal) greater than 100 µM, a TGI (ACHN renal) greater than 100 µM and a GI50 (UACC-62 melanoma) of 14.3 µM. For the same compound, the TGI (UACC-62 melanoma) was greater than 100 µM, the GI50 (OVCAR-5 ovarian) was greater than 100 µM and the TGI (OVCAR-5 ovarian) was greater than 100 µM. The GI50 (T-47D breast) was 48.3 µM, the TGI (T-47D breast) was greater than 100 µM and the GI50 (SK-MEL-5 melanoma) was 70.7 µM. For the same compound, the TGI (SK-MEL-5 melanoma) was greater than 100 µM, the GI50 (KM12 colon) was 10.8 µM and the TGI (KM12 colon) was greater than 100 µM. The GI50 (IGROV1 ovarian) was greater than 100 µM, the TGI (IGROV1 ovarian) was greater than 100 µM and the GI50 (HCT-116 colon) was 30.1 µM. For the same compound, the TGI (HCT-116 colon) was greater than 100 µM, the GI50 (SK-OV-3 ovarian) was 8.18 µM and the TGI (SK-OV-3 ovarian) was greater than 100 µM. The GI50 (SW-620 colon) was 7.14 µM, the TGI (SW-620 colon) was greater than 100 µM and the GI50 (OVCAR-8 ovarian) was greater than 100 µM. The TGI (OVCAR-8 ovarian) was greater than 100 µM, the GI50 (CAKI-1 renal) was greater than 100 µM and the TGI (CAKI-1 renal) was greater than 100 µM. The GI50 (HL-60(TB) leukemia) was 9.3 µM, the TGI (HL-60(TB) leukemia) was greater than 100 µM and the GI50 (786-0 renal) was 30.3 µM. The TGI (786-0 renal) was greater than 100 µM, the GI50 (BT-549 breast) was greater than 100 µM and the TGI (BT-549 breast) was greater than 100 µM. The GI50 (PC-3 prostate) was greater than 100 µM, the TGI (PC-3 prostate) was greater than 100 µM and the GI50 (SNB-75 CNS) was 2170 nM. It also gave a TGI (SNB-75 CNS) of 6.53 µM, a GI50 (SF-295 CNS) of 64.4 µM and a TGI (SF-295 CNS) greater than 100 µM. The GI50 (UACC-257 melanoma) was greater than 100 µM, the TGI (UACC-257 melanoma) was greater than 100 µM and the GI50 (COLO 205 colon) was 14.4 µM. It also gave a TGI (COLO 205 colon) greater than 100 µM, a GI50 (NCI-H23 lung) greater than 100 µM and a TGI (NCI-H23 lung) greater than 100 µM. The GI50 (NCI-H460 lung) was greater than 100 µM, the TGI (NCI-H460 lung) was greater than 100 µM and the GI50 (NCI/ADR-RES ovarian) was 9.26 µM. For the same compound, the TGI (NCI/ADR-RES ovarian) was greater than 100 µM, the GI50 (SR leukemia) was 5.23 µM and the TGI (SR leukemia) was greater than 100 µM. It also gave a GI50 (NCI-H522 lung) greater than 100 µM, a TGI (NCI-H522 lung) greater than 100 µM and a GI50 (MALME-3M melanoma) of 29.2 µM. For the same compound, the TGI (MALME-3M melanoma) was greater than 100 µM, the GI50 (SN12C renal) was greater than 100 µM and the TGI (SN12C renal) was greater than 100 µM. It also gave a GI50 (K-562 leukemia) of 4.64 µM, a TGI (K-562 leukemia) greater than 100 µM and a GI50 (RXF 393 renal) of 5.18 µM. For the same compound, the TGI (RXF 393 renal) was greater than 100 µM, the GI50 (RPMI-8226 leukemia) was greater than 100 µM and the TGI (RPMI-8226 leukemia) was greater than 100 µM. The GI50 (NCI-H226 lung) was greater than 100 µM, the TGI (NCI-H226 lung) was greater than 100 µM and the GI50 (HT29 colon) was 37.9 µM. The TGI (HT29 colon) was greater than 100 µM, the GI50 (M14 melanoma) was 7.71 µM and the TGI (M14 melanoma) was greater than 100 µM. The GI50 (HOP-62 NSCLC) was 6.98 µM, the TGI (HOP-62 NSCLC) was greater than 100 µM and the GI50 (HS 578T breast) was 9.82 µM. It also gave a TGI (HS 578T breast) greater than 100 µM, a GI50 (OVCAR-4 ovarian) greater than 100 µM and a TGI (OVCAR-4 ovarian) greater than 100 µM. For the same compound, the GI50 (A498 renal) was greater than 100 µM, the TGI (A498 renal) was greater than 100 µM and the GI50 (MDA-MB-435) was 2320 nM. The TGI (MDA-MB-435) was 5.93 µM.
